Experiments:
Parameters in all cases: scale not given: the % may be the effect or the level left
[1] = biological target: TRAF2 and NCK-interacting protein kinase (Homo sapiens) (UniProt Q9UKE5); assay: Inhibition of TNIK assessed as enzyme activity at 1 uM relative to untreated control
[2] = biological target: Ephrin type-A receptor 6 (Homo sapiens) (UniProt Q9UF33); assay: Inhibition of EPHA6 assessed as enzyme activity at 1 uM relative to untreated control
[3] = biological target: Dual specificity protein kinase CLK2 (Homo sapiens) (UniProt P49760); assay: Inhibition of CLK2 assessed as enzyme activity at 1 uM relative to untreated control
Dual specificity protein kinase CLK2 (Homo sapiens), sequence (P49760 whole entry, looked up): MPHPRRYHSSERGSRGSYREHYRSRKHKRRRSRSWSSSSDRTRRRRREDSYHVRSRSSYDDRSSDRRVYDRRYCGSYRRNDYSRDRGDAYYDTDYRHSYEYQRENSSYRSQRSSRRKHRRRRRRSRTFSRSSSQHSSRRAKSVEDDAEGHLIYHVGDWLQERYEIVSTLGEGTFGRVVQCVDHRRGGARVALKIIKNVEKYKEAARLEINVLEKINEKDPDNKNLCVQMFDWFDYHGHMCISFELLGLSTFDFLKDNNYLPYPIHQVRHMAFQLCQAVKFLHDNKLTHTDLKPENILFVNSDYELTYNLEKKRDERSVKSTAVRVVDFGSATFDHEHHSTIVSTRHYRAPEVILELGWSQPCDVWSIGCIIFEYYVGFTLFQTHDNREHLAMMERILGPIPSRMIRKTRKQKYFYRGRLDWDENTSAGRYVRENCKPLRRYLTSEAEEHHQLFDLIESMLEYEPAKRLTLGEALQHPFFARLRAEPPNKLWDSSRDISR

[4] = biological target: Tyrosine-protein kinase ABL2 (Homo sapiens) (UniProt P42684); assay: Inhibition of ABL2 assessed as enzyme activity at 1 uM relative to untreated control
[5] = biological target: RAF proto-oncogene serine/threonine-protein kinase (Homo sapiens) (UniProt P04049); assay: Inhibition of RAF1 assessed as enzyme activity at 1 uM relative to untreated control
[6] = biological target: Dual specificity protein kinase CLK1 (Homo sapiens) (UniProt P49759); assay: Inhibition of CLK1 assessed as enzyme activity at 1 uM relative to untreated control
[7] = biological target: Tyrosine-protein kinase Yes (Homo sapiens) (UniProt P07947); assay: Inhibition of YES assessed as enzyme activity at 1 uM relative to untreated control
Tyrosine-protein kinase Yes (Homo sapiens), sequence (P07947 2-543 limits assumed): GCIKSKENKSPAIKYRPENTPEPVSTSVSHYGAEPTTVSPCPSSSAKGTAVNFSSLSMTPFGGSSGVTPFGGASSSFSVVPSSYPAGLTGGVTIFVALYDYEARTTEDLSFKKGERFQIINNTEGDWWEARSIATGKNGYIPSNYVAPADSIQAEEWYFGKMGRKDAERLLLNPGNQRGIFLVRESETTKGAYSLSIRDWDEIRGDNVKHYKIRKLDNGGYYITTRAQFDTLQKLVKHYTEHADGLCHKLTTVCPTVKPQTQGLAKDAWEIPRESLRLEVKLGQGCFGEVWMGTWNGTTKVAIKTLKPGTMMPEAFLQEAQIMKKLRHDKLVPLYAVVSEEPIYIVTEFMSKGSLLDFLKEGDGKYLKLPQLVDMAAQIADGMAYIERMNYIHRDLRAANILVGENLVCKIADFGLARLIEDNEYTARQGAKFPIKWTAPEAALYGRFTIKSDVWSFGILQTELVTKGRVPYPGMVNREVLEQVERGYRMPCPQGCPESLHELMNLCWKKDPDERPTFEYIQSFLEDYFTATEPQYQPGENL

[8] = biological target: Mitogen-activated protein kinase 7 (Homo sapiens) (UniProt Q13164); assay: Inhibition of ERK5 assessed as enzyme activity at 1 uM relative to untreated control
[9] = biological target: Phosphatidylinositol 4-phosphate 3-kinase C2 domain-containing subunit beta (Homo sapiens) (UniProt O00750); assay: Inhibition of PIK3C2B assessed as enzyme activity at 1 uM relative to untreated control
[10] = biological target: Serine/threonine-protein kinase MRCK alpha (Homo sapiens) (UniProt Q5VT25); assay: Inhibition of MRCKA assessed as enzyme activity at 1 uM relative to untreated control
[11] = biological target: Protein kinase C epsilon type (Homo sapiens) (UniProt Q02156); assay: Inhibition of PRKCE assessed as enzyme activity at 1 uM relative to untreated control
Protein kinase C epsilon type (Homo sapiens), sequence (Q02156 whole entry): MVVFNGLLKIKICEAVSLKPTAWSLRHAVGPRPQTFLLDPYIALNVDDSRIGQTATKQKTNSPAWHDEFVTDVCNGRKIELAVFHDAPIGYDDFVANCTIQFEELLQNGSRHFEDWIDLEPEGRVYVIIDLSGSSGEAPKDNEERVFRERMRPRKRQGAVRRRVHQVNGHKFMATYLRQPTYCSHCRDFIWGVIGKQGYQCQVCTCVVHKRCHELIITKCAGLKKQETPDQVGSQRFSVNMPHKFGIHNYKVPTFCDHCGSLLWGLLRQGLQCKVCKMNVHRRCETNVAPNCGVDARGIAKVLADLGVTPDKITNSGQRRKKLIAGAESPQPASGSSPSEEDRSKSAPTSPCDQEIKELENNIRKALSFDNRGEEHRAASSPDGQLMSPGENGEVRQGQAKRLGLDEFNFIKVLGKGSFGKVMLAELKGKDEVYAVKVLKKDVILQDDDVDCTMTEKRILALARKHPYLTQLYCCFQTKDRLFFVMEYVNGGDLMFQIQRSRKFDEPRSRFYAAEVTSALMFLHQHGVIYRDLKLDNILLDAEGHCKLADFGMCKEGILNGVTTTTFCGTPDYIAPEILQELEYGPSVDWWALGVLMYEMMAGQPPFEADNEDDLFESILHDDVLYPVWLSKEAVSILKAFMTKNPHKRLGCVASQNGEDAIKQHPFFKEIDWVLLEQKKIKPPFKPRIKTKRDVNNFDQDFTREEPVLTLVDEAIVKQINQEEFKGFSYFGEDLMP

[12] = biological target: Mitogen-activated protein kinase 12 (Homo sapiens) (UniProt P53778); assay: Inhibition of p38-gamma assessed as enzyme activity at 1 uM relative to untreated control
[13] = biological target: Serine/threonine-protein kinase 10 (Homo sapiens) (UniProt O94804); assay: Inhibition of LOK assessed as enzyme activity at 1 uM relative to untreated control
[14] = biological target: Death-associated protein kinase 3 (Homo sapiens) (UniProt O43293); assay: Inhibition of DAPK3 assessed as enzyme activity at 1 uM relative to untreated control
[15] = biological target: Maternal embryonic leucine zipper kinase (Homo sapiens) (UniProt Q14680); assay: Inhibition of MELK assessed as enzyme activity at 1 uM relative to untreated control
[16] = biological target: Serine/threonine-protein kinase PAK 5 (Homo sapiens) (UniProt Q9P286); assay: Inhibition of PAK7/PAK5 assessed as enzyme activity at 1 uM relative to untreated control
[17] = biological target: Serine/threonine-protein kinase D3 (Homo sapiens) (UniProt O94806); assay: Inhibition of PRKD3 assessed as enzyme activity at 1 uM relative to untreated control
[18] = biological target: Serine/threonine-protein kinase 17A (Homo sapiens) (UniProt Q9UEE5); assay: Inhibition of DRAK1 assessed as enzyme activity at 1 uM relative to untreated control
[19] = biological target: Ephrin type-B receptor 3 (Homo sapiens) (UniProt P54753); assay: Inhibition of EPHB3 assessed as enzyme activity at 1 uM relative to untreated control
[20] = biological target: Mitogen-activated protein kinase kinase kinase 9 (Homo sapiens) (UniProt P80192); assay: Inhibition of MLK1 assessed as enzyme activity at 1 uM relative to untreated control
Mitogen-activated protein kinase kinase kinase 9 (Homo sapiens), sequence (P80192 whole entry, looked up): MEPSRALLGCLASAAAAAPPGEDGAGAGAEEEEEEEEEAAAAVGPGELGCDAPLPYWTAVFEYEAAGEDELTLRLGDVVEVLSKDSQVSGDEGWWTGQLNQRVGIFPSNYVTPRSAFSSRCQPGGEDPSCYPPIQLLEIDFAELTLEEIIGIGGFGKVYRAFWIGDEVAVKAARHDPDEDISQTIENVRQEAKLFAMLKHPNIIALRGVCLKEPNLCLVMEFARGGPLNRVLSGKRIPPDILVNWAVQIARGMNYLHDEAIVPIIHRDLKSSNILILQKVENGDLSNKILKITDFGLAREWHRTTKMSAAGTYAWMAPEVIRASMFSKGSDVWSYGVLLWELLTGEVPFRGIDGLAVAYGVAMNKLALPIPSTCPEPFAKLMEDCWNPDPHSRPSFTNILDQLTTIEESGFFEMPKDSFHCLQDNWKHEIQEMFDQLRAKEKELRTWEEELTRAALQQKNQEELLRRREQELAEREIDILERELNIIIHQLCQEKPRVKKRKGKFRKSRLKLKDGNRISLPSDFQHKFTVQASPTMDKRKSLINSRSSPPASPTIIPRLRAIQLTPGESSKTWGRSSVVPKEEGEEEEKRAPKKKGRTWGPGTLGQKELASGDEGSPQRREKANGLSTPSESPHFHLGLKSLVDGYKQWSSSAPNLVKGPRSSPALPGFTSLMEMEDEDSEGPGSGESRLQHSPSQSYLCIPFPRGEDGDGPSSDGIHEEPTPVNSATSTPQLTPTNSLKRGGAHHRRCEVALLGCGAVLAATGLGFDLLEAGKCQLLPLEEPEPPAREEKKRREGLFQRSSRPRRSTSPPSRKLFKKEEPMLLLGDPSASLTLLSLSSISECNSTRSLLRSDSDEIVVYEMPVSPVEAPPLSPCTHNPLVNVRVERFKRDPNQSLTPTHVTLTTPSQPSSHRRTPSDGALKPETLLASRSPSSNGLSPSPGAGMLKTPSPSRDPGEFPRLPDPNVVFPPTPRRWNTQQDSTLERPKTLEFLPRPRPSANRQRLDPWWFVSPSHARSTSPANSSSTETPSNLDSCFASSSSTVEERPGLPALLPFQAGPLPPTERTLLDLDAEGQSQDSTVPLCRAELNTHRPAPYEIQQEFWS

[21] = test system: Tyrosine-protein kinase ABL1 (Homo sapiens), P00519 [T315I]; assay: Inhibition of ABL1 T315I mutant assessed as enzyme activity at 1 uM relative to untreated control
[22] = test system: Epidermal growth factor receptor (Homo sapiens), P00533 [L858R]; assay: Inhibition of EGFR L858R mutant assessed as enzyme activity at 1 uM relative to untreated control; assay type: protein assay
[23] = biological target: Tyrosine-protein kinase TXK (Homo sapiens) (UniProt P42681); assay: Inhibition of TXK assessed as enzyme activity at 1 uM relative to untreated control
Tyrosine-protein kinase TXK (Homo sapiens), sequence (P42681 whole entry, canonical isoform): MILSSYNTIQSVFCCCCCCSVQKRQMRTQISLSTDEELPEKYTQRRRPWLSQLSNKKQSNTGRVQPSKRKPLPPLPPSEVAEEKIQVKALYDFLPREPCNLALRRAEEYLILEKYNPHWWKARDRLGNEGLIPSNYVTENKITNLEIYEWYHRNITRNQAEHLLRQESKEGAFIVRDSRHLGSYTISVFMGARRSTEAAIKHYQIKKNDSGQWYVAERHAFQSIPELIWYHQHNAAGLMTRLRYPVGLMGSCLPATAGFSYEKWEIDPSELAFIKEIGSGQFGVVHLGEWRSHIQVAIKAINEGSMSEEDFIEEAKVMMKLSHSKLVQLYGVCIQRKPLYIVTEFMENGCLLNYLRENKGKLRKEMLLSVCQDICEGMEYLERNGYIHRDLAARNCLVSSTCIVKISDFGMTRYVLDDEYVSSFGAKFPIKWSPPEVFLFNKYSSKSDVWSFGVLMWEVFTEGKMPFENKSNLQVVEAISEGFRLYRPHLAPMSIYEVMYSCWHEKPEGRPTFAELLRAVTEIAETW

[24] = biological target: Phosphorylase b kinase gamma catalytic chain, skeletal muscle/heart isoform (Homo sapiens) (UniProt Q16816); assay: Inhibition of PHKG1 assessed as enzyme activity at 1 uM relative to untreated control
[25] = biological target: Mitogen-activated protein kinase kinase kinase 11 (Homo sapiens) (UniProt Q16584); assay: Inhibition of MLK3 assessed as enzyme activity at 1 uM relative to untreated control
Mitogen-activated protein kinase kinase kinase 11 (Homo sapiens), sequence (Q16584 whole entry, looked up): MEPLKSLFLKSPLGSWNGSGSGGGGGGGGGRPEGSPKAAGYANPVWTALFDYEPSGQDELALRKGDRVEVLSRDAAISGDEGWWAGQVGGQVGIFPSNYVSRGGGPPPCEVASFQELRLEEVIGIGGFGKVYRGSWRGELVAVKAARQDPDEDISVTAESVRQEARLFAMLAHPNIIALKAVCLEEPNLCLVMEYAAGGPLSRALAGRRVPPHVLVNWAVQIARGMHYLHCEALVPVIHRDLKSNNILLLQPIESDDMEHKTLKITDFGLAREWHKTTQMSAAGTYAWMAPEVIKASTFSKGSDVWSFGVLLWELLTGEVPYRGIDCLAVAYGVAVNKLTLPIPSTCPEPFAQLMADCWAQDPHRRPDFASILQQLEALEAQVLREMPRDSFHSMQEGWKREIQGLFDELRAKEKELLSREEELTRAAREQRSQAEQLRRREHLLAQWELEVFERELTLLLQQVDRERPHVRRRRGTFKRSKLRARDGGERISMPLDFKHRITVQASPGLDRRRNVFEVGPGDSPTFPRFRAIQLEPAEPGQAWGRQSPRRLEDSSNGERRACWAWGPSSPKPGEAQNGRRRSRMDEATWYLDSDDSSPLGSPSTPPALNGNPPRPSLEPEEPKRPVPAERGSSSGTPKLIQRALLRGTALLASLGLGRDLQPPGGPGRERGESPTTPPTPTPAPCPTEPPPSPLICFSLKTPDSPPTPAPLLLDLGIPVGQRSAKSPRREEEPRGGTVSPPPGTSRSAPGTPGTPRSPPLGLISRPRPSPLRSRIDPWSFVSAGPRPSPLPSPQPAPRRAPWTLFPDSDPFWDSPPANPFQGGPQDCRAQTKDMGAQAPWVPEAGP

[26] = biological target: Calcium/calmodulin-dependent protein kinase type IV (Homo sapiens) (UniProt Q16566); assay: Inhibition of CAMK4 assessed as enzyme activity at 1 uM relative to untreated control
Calcium/calmodulin-dependent protein kinase type IV (Homo sapiens), sequence (Q16566 whole entry): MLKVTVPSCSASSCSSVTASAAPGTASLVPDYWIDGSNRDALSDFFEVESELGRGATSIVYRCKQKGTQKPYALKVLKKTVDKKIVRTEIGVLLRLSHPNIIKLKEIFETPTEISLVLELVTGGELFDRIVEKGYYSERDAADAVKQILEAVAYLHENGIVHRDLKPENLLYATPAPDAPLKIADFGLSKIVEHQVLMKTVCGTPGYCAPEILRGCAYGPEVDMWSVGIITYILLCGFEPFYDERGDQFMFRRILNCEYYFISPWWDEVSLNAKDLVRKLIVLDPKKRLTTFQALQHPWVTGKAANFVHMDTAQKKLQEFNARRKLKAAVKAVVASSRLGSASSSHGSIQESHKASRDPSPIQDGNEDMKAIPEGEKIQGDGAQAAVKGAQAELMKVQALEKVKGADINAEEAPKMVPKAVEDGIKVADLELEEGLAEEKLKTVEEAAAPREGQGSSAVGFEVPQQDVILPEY

[27] = biological target: Mitogen-activated protein kinase 4 (Homo sapiens) (UniProt P31152); assay: Inhibition of ERK4 assessed as enzyme activity at 1 uM relative to untreated control
[28] = biological target: Tyrosine-protein kinase HCK (Homo sapiens) (UniProt P08631); assay: Inhibition of HCK assessed as enzyme activity at 1 uM relative to untreated control
[29] = biological target: Cyclin-dependent kinase 14 (Homo sapiens) (UniProt O94921); assay: Inhibition of PFTK1 assessed as enzyme activity at 1 uM relative to untreated control
[30] = test system: Epidermal growth factor receptor (Homo sapiens), P00533 [UNDEFINED MUTATION]; assay: Inhibition of EGFR L747-S752del, P753S mutant assessed as enzyme activity at 1 uM relative to untreated control; assay type: protein assay
[31] = biological target: Atypical kinase COQ8B, mitochondrial (Homo sapiens) (UniProt Q96D53); assay: Inhibition of ADCK4 assessed as enzyme activity at 1 uM relative to untreated control
[32] = biological target: Serine/threonine-protein kinase PAK 2 (Homo sapiens) (UniProt Q13177); assay: Inhibition of PAK2 assessed as enzyme activity at 1 uM relative to untreated control
[33] = biological target: BMP-2-inducible protein kinase (Homo sapiens) (UniProt Q9NSY1); assay: Inhibition of BIKE assessed as enzyme activity at 1 uM relative to untreated control
[34] = biological target: Serine/threonine-protein kinase 17B (Homo sapiens) (UniProt O94768); assay: Inhibition of DRAK2 assessed as enzyme activity at 1 uM relative to untreated control
[35] = biological target: Fibroblast growth factor receptor 3 (Homo sapiens) (UniProt P22607); assay: Inhibition of FGFR3 assessed as enzyme activity at 1 uM relative to untreated control
[36] = biological target: Serine/threonine-protein kinase PLK1 (Homo sapiens) (UniProt P53350); assay: Inhibition of PLK1 assessed as enzyme activity at 1 uM relative to untreated control
[37] = biological target: Tyrosine-protein kinase Srms (Homo sapiens) (UniProt Q9H3Y6); assay: Inhibition of SRMS assessed as enzyme activity at 1 uM relative to untreated control

`Cc1ccc2c(Nc3ccc(Cl)cc3)nccc2c1Nc1ncccc1-c1ncnc2[nH]cnc12.Cl.Cl.Cl` was tested, and the Activity [1] was 100%, the Activity [2] was 2.8% and the Activity [3] was 100%. It also gave an Activity [4] of 42%, an Activity [5] of 0% and an Activity [6] of 100%. It also gave an Activity [7] of 52%, an Activity [8] of 95% and an Activity [9] of 100%. For the same compound, the Activity [10] was 87%, the Activity [11] was 100% and the Activity [12] was 100%. The Activity [13] was 0%, the Activity [14] was 100% and the Activity [15] was 100%. For the same compound, the Activity [16] was 90%, the Activity [17] was 100% and the Activity [18] was 100%. The Activity [19] was 10%, the Activity [20] was 100% and the Activity [21] was 72%. The Activity [22] was 100%, the Activity [23] was 100% and the Activity [24] was 99%. The Activity [25] was 100%, the Activity [26] was 96% and the Activity [27] was 100%. The Activity [28] was 53%, the Activity [29] was 100% and the Activity [30] was 94%. For the same compound, the Activity [31] was 77%, the Activity [32] was 85% and the Activity [33] was 70%. It also gave an Activity [34] of 96%, an Activity [35] of 100% and an Activity [36] of 100%. It also gave an Activity [37] of 100%.
